# Reference: PubChem BioAssay AID256 (DTP/NCI, 2004)
# Toxic doses and inconclusive results are not listed.
# Test system: CD2F1 mice, L1210 leukemia ip, survival T/C
# Assay: NCI In Vivo Anticancer Drug Screen. Data for tumor model L1210 Leukemia (intraperitoneal) in CD2F1 (CDF1) mice
# Settings: higher = longer survival
# In short: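 Read-out first: treated-group measurement over vehicle-control measurement, expressed as a ratio. Animals bore a transplanted tumor line and were dosed with compound or vehicle.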
# [1] = endpoint: mean survival time, dose: 25.0 mg/kg/injection, schedule: Q01DX009 (ip), vehicle: saline with Tween-80
# [2] = endpoint: mean survival time, dose: 50.0 mg/kg/injection, schedule: Q01DX009 (ip), vehicle: saline with Tween-80
# [3] = endpoint: mean survival time, dose: 50.0 mg/kg/injection, schedule: Q04DX003 (ip), vehicle: saline with Tween-80
# [4] = endpoint: mean survival time, dose: 100.0 mg/kg/injection, schedule: Q01DX009 (ip), vehicle: saline with Tween-80
# [5] = endpoint: mean survival time, dose: 100.0 mg/kg/injection, schedule: Q04DX003 (ip), vehicle: saline with Tween-80
# [6] = endpoint: mean survival time, dose: 100.0 mg/kg/injection, schedule: Q01DX009 (ip), vehicle: Klucel (hydroxypropylcellulose) (HPC)
# [7] = endpoint: mean survival time, dose: 400.0 mg/kg/injection, schedule: Q04DX003 (ip), vehicle: saline with Tween-80
# [8] = endpoint: mean survival time, dose: 100.0 mg/kg/injection, schedule: Q04DX002 (ip), vehicle: saline with Tween-80
# [9] = endpoint: mean survival time, dose: 200.0 mg/kg/injection, schedule: Q04DX002 (ip), vehicle: saline with Tween-80
# [10] = endpoint: mean survival time, dose: 200.0 mg/kg/injection, schedule: Q04DX003 (ip), vehicle: saline with Tween-80
structure (smiles),measurement,setting,value
CCC/C(=N\Nc1ccc([N+](=O)[O-])cc1[N+](=O)[O-])c1ccccc1,T/C,[1],94 % of control
same,T/C,"endpoint: mean survival time, dose: 25.0 mg/kg/injection, schedule: Q04DX003 (ip), vehicle: saline with Tween-80",104 % of control
same,T/C,[2],105 % of control
same,T/C,[3],115 % of control
same,T/C,[4],94 % of control
same,T/C,[5],98 % of control
O=C(O)C1CCC(NCc2ccccc2)CC1 (configuration not stated),T/C,[6],100 % of control
same,T/C,"endpoint: mean survival time, dose: 200.0 mg/kg/injection, schedule: Q01DX009 (ip), vehicle: Klucel (hydroxypropylcellulose) (HPC)",100 % of control
same,T/C,"endpoint: mean survival time, dose: 400.0 mg/kg/injection, schedule: Q01DX009 (ip), vehicle: Klucel (hydroxypropylcellulose) (HPC)",111 % of control
CN(C)N=Nc1ccc(S(=O)(=O)Nc2ncccn2)cc1,T/C,[1],120 % of control
same,T/C,[2],124 % of control
same,T/C,[5],113 % of control
same,T/C,[7],157 % of control
CC(=O)NC(CC(=O)O)C(=O)NNC(=O)c1ccccc1O (configuration not stated),T/C,"endpoint: mean survival time, dose: 25.0 mg/kg/injection, schedule: Q01DX009 (ip), vehicle: Klucel (hydroxypropylcellulose) (HPC)",108 % of control
same,T/C,"endpoint: mean survival time, dose: 50.0 mg/kg/injection, schedule: Q01DX009 (ip), vehicle: Klucel (hydroxypropylcellulose) (HPC)",115 % of control
same,T/C,[6],104 % of control
CC(C)(C)OOC(=O)c1ccccn1,T/C,[8],95 % of control
same,T/C,[9],95 % of control
O=c1[nH]c(=O)n([C@H]2CCCO2)cc1F,T/C,"endpoint: mean survival time, dose: 25.0 mg/kg/injection, schedule: Q01DX005 (ip), vehicle: other",93 % of control
same,T/C,[1],97 % of control
same,T/C,"endpoint: mean survival time, dose: 25.0 mg/kg/injection, schedule: Q04DX003 (ip), vehicle: saline",90 % of control
same,T/C,"endpoint: mean survival time, dose: 50.0 mg/kg/injection, schedule: Q01DX005 (ip), vehicle: other",93 % of control
same,T/C,[2],101 % of control
same,T/C,"endpoint: mean survival time, dose: 50.0 mg/kg/injection, schedule: Q04DX003 (ip), vehicle: saline",100 % of control
same,T/C,"endpoint: mean survival time, dose: 100.0 mg/kg/injection, schedule: Q01DX005 (ip), vehicle: other",114 % of control
same,T/C,"endpoint: mean survival time, dose: 100.0 mg/kg/injection, schedule: Q04DX003 (ip), vehicle: saline",105 % of control
same,T/C,"endpoint: mean survival time, dose: 112.5 mg/kg/injection, schedule: Q04DX003 (ip), vehicle: saline with Tween-80",106 % of control
same,T/C,"endpoint: mean survival time, dose: 112.5 mg/kg/injection, schedule: Q04DX003 (iv), vehicle: saline with Tween-80",104 % of control
same,T/C,"endpoint: mean survival time, dose: 225.0 mg/kg/injection, schedule: Q04DX003 (ip), vehicle: saline with Tween-80",116 % of control
same,T/C,"endpoint: mean survival time, dose: 225.0 mg/kg/injection, schedule: Q04DX003 (iv), vehicle: saline with Tween-80",113 % of control
same,T/C,"endpoint: mean survival time, dose: 400.0 mg/kg/injection, schedule: Q01DX005 (ip), vehicle: other",95 % of control
same,T/C,"endpoint: mean survival time, dose: 400.0 mg/kg/injection, schedule: Q01DX009 (ip), vehicle: saline with Tween-80",104 % of control
same,T/C,"endpoint: mean survival time, dose: 400.0 mg/kg/injection, schedule: Q04DX003 (ip), vehicle: saline",158 % of control
same,T/C,"endpoint: mean survival time, dose: 450.0 mg/kg/injection, schedule: Q04DX003 (ip), vehicle: saline with Tween-80",153 % of control
CCCCNC(=S)NNC(=O)Cn1cnc2c1c(=O)n(C)c(=O)n2C,T/C,"endpoint: mean survival time, dose: 12.5 mg/kg/injection, schedule: Q01DX005 (ip), vehicle: distilled water + Tween-80",101 % of control
same,T/C,"endpoint: mean survival time, dose: 25.0 mg/kg/injection, schedule: Q01DX005 (ip), vehicle: distilled water + Tween-80",101 % of control
same,T/C,"endpoint: mean survival time, dose: 50.0 mg/kg/injection, schedule: Q01DX005 (ip), vehicle: distilled water + Tween-80",97 % of control
same,T/C,"endpoint: mean survival time, dose: 100.0 mg/kg/injection, schedule: Q01DX005 (ip), vehicle: distilled water + Tween-80",97 % of control
same,T/C,"endpoint: mean survival time, dose: 200.0 mg/kg/injection, schedule: Q01DX005 (ip), vehicle: distilled water + Tween-80",101 % of control
COc1ccc([C@@H]2c3cc4c(cc3C[C@H]3COC(=O)[C@@H]32)OCO4)cc1OC,T/C,"endpoint: mean survival time, dose: 11.0 mg/kg/injection, schedule: Q01DX009 (ip), vehicle: saline with Tween-80",110 % of control
same,T/C,"endpoint: mean survival time, dose: 22.0 mg/kg/injection, schedule: Q01DX009 (ip), vehicle: saline with Tween-80",110 % of control
same,T/C,"endpoint: mean survival time, dose: 33.0 mg/kg/injection, schedule: Q01DX009 (ip), vehicle: saline with Tween-80",109 % of control
same,T/C,"endpoint: mean survival time, dose: 67.0 mg/kg/injection, schedule: Q01DX009 (ip), vehicle: saline with Tween-80",107 % of control
CNc1c(Cl)c(Cl)c(Br)c(Cl)c1Cl,T/C,[5],100 % of control
same,T/C,[10],95 % of control
same,T/C,[7],101 % of control
Cn1c(CC(O)(C(F)(F)Cl)C(F)(F)Cl)cc(=O)n1-c1ccccc1,T/C,[3],101 % of control
same,T/C,[4],97 % of control
same,T/C,[5],97 % of control
same,T/C,"endpoint: mean survival time, dose: 200.0 mg/kg/injection, schedule: Q01DX009 (ip), vehicle: saline with Tween-80",97 % of control
same,T/C,[10],97 % of control
same,T/C,[7],92 % of control
Cc1ccc(NC(=O)C(Cl)(Cl)Cl)cc1[N+](=O)[O-],T/C,[5],102 % of control
same,T/C,[10],96 % of control
same,T/C,[7],98 % of control
O=C(O)C(Br)CCC(Br)C(=O)O (configuration not stated),T/C,"endpoint: mean survival time, dose: 100.0 mg/kg/injection, schedule: Q01DX001 (ip), vehicle: other",102 % of control
same,T/C,"endpoint: mean survival time, dose: 200.0 mg/kg/injection, schedule: Q01DX001 (ip), vehicle: other",102 % of control
same,T/C,"endpoint: mean survival time, dose: 400.0 mg/kg/injection, schedule: Q01DX001 (ip), vehicle: other",97 % of control
CCCCC(=O)/C=C/c1ccccc1,T/C,"endpoint: mean survival time, dose: 50.0 mg/kg/injection, schedule: Q04DX002 (ip), vehicle: saline with Tween-80",97 % of control
same,T/C,[8],87 % of control
same,T/C,[9],105 % of control
same,T/C,"endpoint: mean survival time, dose: 400.0 mg/kg/injection, schedule: Q04DX002 (ip), vehicle: saline with Tween-80",91 % of control
C/C(=N\N)c1ccc(Cl)cc1,T/C,[5],103 % of control
same,T/C,[10],123 % of control
same,T/C,[7],109 % of control
Cc1cc2c(C(C)C)c(O)c(O)cc2c(O)c1-c1c(C)cc2c(C(C)C)c(O)c(O)cc2c1O,T/C,"endpoint: mean survival time, dose: 12.5 mg/kg/injection, schedule: Q01DX001 (ip), vehicle: saline with Tween-80",105 % of control
same,T/C,"endpoint: mean survival time, dose: 12.5 mg/kg/injection, schedule: Q01DX009 (ip), vehicle: saline with Tween-80",100 % of control
same,T/C,"endpoint: mean survival time, dose: 25.0 mg/kg/injection, schedule: Q01DX001 (ip), vehicle: saline with Tween-80",102 % of control
same,T/C,[1],94 % of control
same,T/C,"endpoint: mean survival time, dose: 50.0 mg/kg/injection, schedule: Q01DX001 (ip), vehicle: saline with Tween-80",103 % of control
same,T/C,[2],90 % of control
Cc1ccc(-c2cc(O)cc(-c3ccc(C)cc3C)c2O)c(C)c1,T/C,"endpoint: mean survival time, dose: 400.0 mg/kg/injection, schedule: Q01DX001 (ip), vehicle: saline with Tween-80",91 % of control
CCOC(=O)N1C2CCC(C2)N1C(=O)OCC,T/C,[5],100 % of control
same,T/C,[10],100 % of control
same,T/C,[7],87 % of control
N#Cc1n[nH]c(C2OC(CO)C(O)C2O)c1O (configuration not stated),T/C,"endpoint: median survival time, dose: 9.38 mg/kg/injection, schedule: Q01DX005 (ip), vehicle: water",104 % of control
same,T/C,"endpoint: median survival time, dose: 18.75 mg/kg/injection, schedule: Q01DX005 (ip), vehicle: water",106 % of control
same,T/C,"endpoint: median survival time, dose: 39.5 mg/kg/injection, schedule: Q01DX005 (ip), vehicle: water",109 % of control
same,T/C,"endpoint: median survival time, dose: 79.0 mg/kg/injection, schedule: Q01DX005 (ip), vehicle: water",109 % of control
same,T/C,"endpoint: median survival time, dose: 158.0 mg/kg/injection, schedule: Q01DX005 (ip), vehicle: water",109 % of control
COc1ccc2c(c1)OC(OC)(c1ccc(OC)c(OC)c1)C(O)(OC)C2=O (configuration not stated),T/C,"endpoint: mean survival time, dose: 50.0 mg/kg/injection, schedule: Q01DX001 (ip), vehicle: saline",102 % of control
same,T/C,"endpoint: mean survival time, dose: 100.0 mg/kg/injection, schedule: Q01DX001 (ip), vehicle: saline",98 % of control
same,T/C,"endpoint: mean survival time, dose: 200.0 mg/kg/injection, schedule: Q01DX001 (ip), vehicle: saline",98 % of control
same,T/C,"endpoint: mean survival time, dose: 400.0 mg/kg/injection, schedule: Q01DX001 (ip), vehicle: saline",96 % of control
CC(C)(C)OC1C2C=CC1C1C2C2(Cl)C(Cl)=C(Cl)C1(Cl)C21OCCO1 (configuration not stated),T/C,"endpoint: mean survival time, dose: 41.25 mg/kg/injection, schedule: Q04DX002 (ip), vehicle: Klucel (hydroxypropylcellulose) (HPC)",98 % of control
same,T/C,"endpoint: mean survival time, dose: 50.0 mg/kg/injection, schedule: Q04DX002 (ip), vehicle: Klucel (hydroxypropylcellulose) (HPC)",97 % of control
same,T/C,"endpoint: mean survival time, dose: 82.5 mg/kg/injection, schedule: Q04DX002 (ip), vehicle: Klucel (hydroxypropylcellulose) (HPC)",100 % of control
same,T/C,"endpoint: mean survival time, dose: 100.0 mg/kg/injection, schedule: Q04DX002 (ip), vehicle: Klucel (hydroxypropylcellulose) (HPC)",98 % of control
same,T/C,"endpoint: mean survival time, dose: 165.0 mg/kg/injection, schedule: Q04DX002 (ip), vehicle: Klucel (hydroxypropylcellulose) (HPC)",98 % of control
same,T/C,"endpoint: mean survival time, dose: 200.0 mg/kg/injection, schedule: Q04DX002 (ip), vehicle: Klucel (hydroxypropylcellulose) (HPC)",98 % of control
same,T/C,"endpoint: mean survival time, dose: 330.0 mg/kg/injection, schedule: Q04DX002 (ip), vehicle: Klucel (hydroxypropylcellulose) (HPC)",98 % of control
same,T/C,"endpoint: mean survival time, dose: 400.0 mg/kg/injection, schedule: Q04DX002 (ip), vehicle: Klucel (hydroxypropylcellulose) (HPC)",97 % of control
